Experimental findings from patent US20110098180A1, “Herbicide-Resistant Plants, And Polynucleotides And Methods For Providing Same” (United States Department of Agriculture, priority 2002, published 2011) are described below.

Common to all, as to experiment: Cross-resistance testing, His-tagged column-purified PDS (Table 2A)
The target of test [1] is hydrilla PDS Arg^304 → Cysteine, His-tagged (Hydrilla verticillata, UniProt Q66PY0, R304C). The test is classed as biochemical. Particulars: Cysteine at 304; His-tagged, column-purified PDS; read-out: I50. The text has this:
(§1) In further cross-resistance testing similar to that described above, an alternative production and purification protocol was used in the preparation of the mutant PDS proteins, and the activity of the proteins was again tested using the same testing protocol. The alternative approach utilized His-tagging and column purification of the mutant PDS protins. The results are shown in. Table 2A below.
(§2) The plasmid pHy4ATG5 was made by cloning the Phytoene Desaturase (pds) gene from Hydrilla verticillata, including 323 by upstream of the beginning of the putative mature protein, into the vector TOPO4 (Invitrogen, Carlsbad, Calif.): The 1-323 by region contained three potential start codons (ATG)(positions 1, 114 and 225 bp) in frame with pds. In order to express pds in bacteria, deletion clones were made for each of the three potential start codons with and without ATG. Only the results for possible origins of translation 1 and 225 by (named ORF and 3ORF) are reported here. pds was PCR amplified and subcloned into TOPO4 using pHy4ATG5 as template and the reverse primer RPDS—1849 (5′[…] 3′). The forward primers used were ORF (5′ […] 3′), ORF-ATG (5′ […] 3′), 3_ORF (5′[…] 3′) and 3_ORF-ATG (5′ […] 3′). The resulting plasmids were named pORF, pORF-ATG (minus ATG codon), p3ORF and p3ORF-ATG. The pds-containing EcoRI-fragments of these plasmids were subcloned into the EcoRI site of pRSETb vector (Invitrogen) for Histidine tagging and bacterial expression. The resulting constructs were pHy4SET, pHy4SET-ATG (minus ATG), p3ORFSET and p3ORFSET-ATG.
(§3) Plasmid p3ORF-ATG was later mutagenized at the amino acid 304 of pds to replace the amino acid Arginine (Arg) by Histidine (His), Threonine (Thr), Serine (Ser), or Cysteine (Cys), using the QuickChange™ Site-Directed Mutagenesis Kit of Stratagene (La Jolla, Calif.). Primers used to replace Arg by His were Hyd-His-For (5′[…] 3′) and Hyd-His-Rev (5′ […] 3′); to replace Arg by Thr we used primers Hyd-Thr-For (5′[…] 3′) and Hyd-Thr-Rev (5′[…] 3′); to replace Arg by Ser we used Hyd-Ser-For (5′[…] 3′) and Hyd-Ser-Rev (5′[…] 3′); and Arg was replaced by Cys using Hyd-Cys-For (5′[…] 3′) and Hyd-Cys-Rev (5′[…] 3′). Resulting plasmids were named: p3ORFHisSet-ATG, p3ORFThrSet-ATG, p3ORFSerSet-ATG and p3ORFCysSet-ATG.
(§4) All pRSET derived constructs were transformed into BL21(DE3)pLysS cells (Invitrogen), induced with IPTG for protein expression, and the His tag overproduced proteins analyzed by Western blot using Anti-HisG antibody (Invitrogen, cat. #R940-25).
(§5) When working with His-tagged PDS proteins expressed as described in Example 4, the purified protein used for testing was prepared as follows. BL21(DE3)pLysS cells were grown overnight in 500 ml Luria Broth (LB) supplemented with carbenicillin (100 mg/l) and cloramphenicol (60 mg/l) at 37° C., and induced with 0.3 mM isopropylthio-β-D-galactoside (IPTG) for 3 hrs. Cells were lysed using a French press (Spectronics Instrument) at 20,000 psi and overexpressed PDS was purified on a nickel activated Hitrap Chelating HP column according to the manufacturers instructions (Amersham Bioscience).
(§6) Generally, PDS protein fractions prepared as described above (Non-His-tagged and His-tagged) were mixed with a soluble fraction from phytoene-producing E. coli cells. For the phytoene producing cells, a plasmid construct containing the genes GGPP synthase and phytoene synthase from Erwinia uredovora, transformed into the appropriate E. coli strain, was used (see, Misawa et al., J. of Bacteriology 177:6575, 1995). This E. coli strain was separately cultured and lysed, and its soluble components collected (“the EB extract”) in a fashion similar to that described above for the PDS-producing cells.
(§7) His-tagged, purified proteins prepared as described above were transferred to the assay buffer on a PD10 column (Amersham Bioscience) and the concentration was adjusted to 100 μg/mL. […]

Test [2] relates to hydrilla PDS Arg^304 → Cysteine, His-tagged. The test is classed as biochemical, Hydrilla verticillata. Particulars: Cysteine at 304 relative to Arginine; Table 2A.
Source text: as §1, §2, §3, §4, §5, §6, §7

Test [3] deals with hydrilla PDS Arg^304 → Histidine, His-tagged (Hydrilla verticillata, UniProt Q66PY0, R304H). It counts as biochemical. Particulars: Histidine at 304; His-tagged, column-purified PDS; read-out: I50.
Source text: as §1, §2, §3, §4, §5, §6, §7

Test [4] concerns hydrilla PDS Arg^304 → Histidine, His-tagged. The test is classed as biochemical, Hydrilla verticillata. Particulars: Histidine at 304 relative to Arginine; Table 2A.
Source text: as §1, §2, §3, §4, §5, §6, §7

Test [5] deals with hydrilla PDS Arg^304 → Serine, His-tagged (Hydrilla verticillata, UniProt Q66PY0, R304S). It counts as biochemical. Particulars: Serine at 304; His-tagged, column-purified PDS; read-out: I50.
Source text: as §1, §2, §3, §4, §5, §6, §7

Test [6] has as its system hydrilla PDS Arg^304 → Serine, His-tagged. The test is classed as biochemical, Hydrilla verticillata. Particulars: Serine at 304 relative to Arginine; Table 2A.
Source text: as §1, §2, §3, §4, §5, §6, §7

hydrilla PDS Arg^304 → Serine, His-tagged (Hydrilla verticillata, UniProt Q66PY0, R304S), sequence (Q66PY0 77-580 R304S): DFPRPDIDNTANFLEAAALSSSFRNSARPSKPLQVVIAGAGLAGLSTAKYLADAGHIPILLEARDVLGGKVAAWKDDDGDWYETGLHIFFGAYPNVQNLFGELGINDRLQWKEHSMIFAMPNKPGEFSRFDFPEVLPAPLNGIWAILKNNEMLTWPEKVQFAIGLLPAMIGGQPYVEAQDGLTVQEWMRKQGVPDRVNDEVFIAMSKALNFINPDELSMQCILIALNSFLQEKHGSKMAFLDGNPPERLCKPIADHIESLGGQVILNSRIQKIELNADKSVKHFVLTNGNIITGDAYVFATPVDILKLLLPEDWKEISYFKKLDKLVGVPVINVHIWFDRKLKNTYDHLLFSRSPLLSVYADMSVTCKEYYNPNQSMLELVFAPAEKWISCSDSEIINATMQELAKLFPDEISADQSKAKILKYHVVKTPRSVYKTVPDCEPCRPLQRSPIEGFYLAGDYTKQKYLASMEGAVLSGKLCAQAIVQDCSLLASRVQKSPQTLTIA
hydrilla PDS Arg^304 → Cysteine, His-tagged (Hydrilla verticillata, UniProt Q66PY0, R304C), sequence (Q66PY0 77-580 R304C): as the sequence (Q66PY0 77-580 R304S) above, with S228C counted along it
hydrilla PDS Arg^304 → Histidine, His-tagged (Hydrilla verticillata, UniProt Q66PY0, R304H), sequence (Q66PY0 77-580 R304H): as the sequence (Q66PY0 77-580 R304S) above, with S228H counted along it

In the case of `CCC(Oc1ccc(F)c(C(F)(F)F)c1)C(=O)NCc1ccccc1` (stereo not drawn) [Beflubutamid], the values for the IC50 in test [1], in test [3] and in test [5] were 232 µM, 126 µM and 465 µM, respectively. Also, the R/S amounted to 3.2 in test [2], 1.75 in test [4] and 6.5 in test [6].
Consider `O=C(Nc1ccc(F)cc1F)c1cccnc1Oc1cccc(C(F)(F)F)c1` [Diflufenican], for which the IC50 in test [1] came out at 241 µM; in test [3] it was 103 µM; in test [5] it was 223 µM. Moreover, the R/S stood at 2.4 in test [2], 1.0 in test [4] and 2.2 in test [6].
With `O=C1C(Cl)C(CCl)CN1c1cccc(C(F)(F)F)c1` (stereo not drawn) [Fluorochloridone], the IC50 in test [1] was determined as 283 µM; in test [3], 364 µM; in test [5] it was 518 µM. Further, the results for the R/S in test [2], in test [4] and in test [6] were 2.2, 2.8 and 4.0, respectively.
With `CNC1=C(c2cccc(C(F)(F)F)c2)C(=O)C(c2ccccc2)O1` (stereo not drawn) [Flurtamone], the results for the IC50 in test [1], in test [3] and in test [5] were 1150 µM, 630 µM and 707 µM, respectively. Moreover, the results for the R/S in test [2], in test [4] and in test [6] were 3.8, 2.1 and 2.4, respectively.
In the case of `CNc1cnn(-c2cccc(C(F)(F)F)c2)c(=O)c1Cl` [Norflurazon], the results for the IC50 in test [1], in test [3] and in test [5] were 1870 µM, 486 µM and 4100 µM, respectively. Further, the R/S in test [2] was determined as 37.0; in test [4], 9.7; in test [6] it was 82.0.
As to `O=C(Nc1ccc(F)cc1)c1cccc(Oc2cccc(C(F)(F)F)c2)n1` [Piconilafen, Picolinafen], the figures for the IC50 in test [1], in test [3] and in test [5] were 96 µM, 112 µM and 62 µM, respectively. Moreover, the figures for the R/S in test [2], in test [4] and in test [6] were 0.3, 0.3 and 0.2, respectively.
As for Fluridone, the R/S in test [2] was 2.6; in test [4] it was 4.8; in test [6], 2.0.
